# From PubChem BioAssay AID1963971 (Molecular Pharmacology Branch, DTP, NCI, 2024)
# Tested on: 953936-095-R-J2-PDC spheroids with HUVEC/MSC, viability
# Assay: Anticancer human tumor 953936-095-R-J2-PDC patient-derived cervical squamous cell carcinoma cell line growth inhibition [PI3K]
# Conditions: for IC50: curve of first compound; for viability, T/C: stronger effect = lower value
# Source text: Combinatorial screen of targeted agents with the PI3K inhibitors inavolisib, alpelisib, duvelisib, and copanlisib in multi-cell type tumor spheroids
# A high-throughput screen of multi-cell type tumor spheroids was designed to identify active combinations of targeted small molecules and PI3K pathway inhibitors. Complex spheroids include a stromal component modeled by human endothelial cells (HUVEC) and fibroblasts modeled by human mesenchymal stem cells (MSCs). The concentration ranges selected for each drug and investigational agent were based upon clinically achievable concentrations if the clinical Cmax of the agent was known.
# Compounds. The drugs and investigational agents: inavolisib (NSC800729), alpelisib (NSC765974), duvelisib (NSC772469), copanlisib (NSC816437), ipatasertib (NSC767898), afuresertib (NSC778305), talazoparib (NSC767125), sapanisertib (NSC764658), selumetinib (NSC741078), tovorafenib (DAY101, NSC766906), vemurafenib (NSC761431), ravoxertinib (NSC781343), sotorasib (NSC818433), MRTX1133 (NSC 836407), abemaciclib (NSC 768073), palbociclib (NSC758247), venetoclax (NSC 766270), SY5609 (NSC837396), enzalutamide (NSC755605), and darolutamide (NSC825331), were obtained from the National Cancer Institute (NCI) Developmental Therapeutics Program Chemical Repository. The FDA-approved anticancer drug set is available from the NCI Developmental Therapeutics Program. […] The stock solutions were prepared in dimethyl sulfoxide (DMSO, Sigma-Aldrich, St. Louis, MO, cat. D2650) at 800-fold the tested concentration and stored at -70 degrees C prior to their use. All drugs and investigational agents were tested over a range starting from a high concentration at or near the clinical Cmax and decreasing in half-log increments. If the clinical Cmax for an agent had not been determined, the highest concentration tested was 10 microM.
# Cell Culture. All cells were maintained in an incubator at 37 degrees C and 5% CO2 with 95% humidity. The PDC lines were cultured according to standard operating procedures established by the NCI PDMR (https://pdmr.cancer.gov/sops/default.htm). All PDCs were thawed and cultured in Matrigel-coated flasks prepared with a working solution of 1X Ham's F-12 nutrient mix, without supplementation (Invitrogen, Waltham, MA, cat. 11765054), 100 U/mL penicillin-streptomycin (Invitrogen, cat. 15140122), and 2.5% Matrigel (Corning Inc., Corning, NY, cat. 354248) for the first three passages. The 354836-022-R-J1-PDC, 475296-252-R-J1-PDC, and 997726-040-R-J2-PDC lines were cultured in 6A media, which includes advanced DMEM/F-12 (Thermo Fisher Scientific, cat. 12634028), 10 mM HEPES (Thermo Fisher Scientific, cat. 15630080), 1X GlutaMAX supplement (Thermo Fisher Scientific, cat. 35050061), 0.1 mg/mL primocin (InvivoGen, San Diego, CA, cat. ant-pm-2), 10% defined fetal bovine serum, heat inactivated (HyClone Laboratories Inc., Logan, UT, cat. SH30070.03HI), 50% L-WRN conditioned media (ATCC, cat. CRL-3276), 1.25 mM N-Acetyl-L-cysteine (Sigma-Aldrich, cat. A9165), 10 mM nicotinamide (Sigma-Aldrich, cat. N0636), 1X B-27 supplement (Thermo Fisher Scientific, cat. 17504044), 1X N-2 supplement (Thermo Fisher Scientific, cat. 17502048), and 10 microM Y-27632 dihydrochloride (Tocris Bioscience, Bristol, United Kingdom, cat. 1254). The 624824-186-R-J2-PDC line was cultured in 6C/Colon 1B media, which includes all 6A media components plus 50 ng/mL human EGF recombinant protein (Thermo Fisher Scientific, cat. PHG0311). […]
# [1] = second compound 0.00316 µM, first compound 0.0316 µM
# [2] = second compound 0.00316 µM, first compound 0.1 µM
# [3] = second compound 0.01 µM, first compound 0.0316 µM
# [4] = second compound 0.01 µM, first compound 0.1 µM
# [5] = second compound 0.0316 µM, first compound 0.0316 µM
# [6] = second compound 0.0316 µM, first compound 0.1 µM
# [7] = second compound 0.1 µM, first compound 0.0316 µM
# [8] = second compound 0.1 µM, first compound 0.1 µM
# [9] = second compound 0.316 µM, first compound 0.0316 µM
# [10] = second compound 0.316 µM, first compound 0.1 µM
# [11] = second compound 1 µM, first compound 0.0316 µM
# [12] = second compound 1 µM, first compound 0.1 µM
# 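Further: spheroids exposed to compounds for seven days before read-out.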
structure (smiles),measurement,setting,value
CC(C)NCC(C(=O)N1CCN(c2ncnc3c2C(C)CC3O)CC1)c1ccc(Cl)cc1 (centres undefined) + CC(Nc1ccc2c(c1)OCCn1cc(N3C(=O)OCC3C(F)F)nc1-2)C(N)=O,IC50,second compound 0.00316 µM,890 nM
same,IC50,second compound 0.01 µM,865 nM
same,IC50,second compound 0.0316 µM,640 nM
same,IC50,second compound 0.1 µM,176 nM
same,IC50,second compound 0.316 µM,< 31.6 nM
same,IC50,second compound 1 µM,< 31.6 nM
same,"viability, T/C",[1],89.5%
same,"viability, T/C",[2],88.2%
same,"viability, T/C","second compound 0.00316 µM, first compound 0.316 µM",73.9%
same,"viability, T/C","second compound 0.00316 µM, first compound 1 µM",48%
same,"viability, T/C","second compound 0.00316 µM, first compound 3.16 µM",22.5%
same,"viability, T/C","second compound 0.00316 µM, first compound 10 µM",15.1%
same,"viability, T/C",[3],87%
same,"viability, T/C",[4],86.1%
same,"viability, T/C","second compound 0.01 µM, first compound 0.316 µM",71.3%
same,"viability, T/C","second compound 0.01 µM, first compound 1 µM",48.3%
same,"viability, T/C","second compound 0.01 µM, first compound 3.16 µM",20.9%
same,"viability, T/C","second compound 0.01 µM, first compound 10 µM",14.1%
same,"viability, T/C",[5],79.1%
same,"viability, T/C",[6],76%
same,"viability, T/C","second compound 0.0316 µM, first compound 0.316 µM",63.5%
same,"viability, T/C","second compound 0.0316 µM, first compound 1 µM",42%
same,"viability, T/C","second compound 0.0316 µM, first compound 3.16 µM",18.4%
same,"viability, T/C","second compound 0.0316 µM, first compound 10 µM",11.4%
same,"viability, T/C",[7],57.2%
same,"viability, T/C",[8],55%
same,"viability, T/C","second compound 0.1 µM, first compound 0.316 µM",45.5%
same,"viability, T/C","second compound 0.1 µM, first compound 1 µM",31.2%
same,"viability, T/C","second compound 0.1 µM, first compound 3.16 µM",18.6%
same,"viability, T/C","second compound 0.1 µM, first compound 10 µM",9.8%
same,"viability, T/C",[9],35.8%
same,"viability, T/C",[10],33.9%
same,"viability, T/C","second compound 0.316 µM, first compound 0.316 µM",30.6%
same,"viability, T/C","second compound 0.316 µM, first compound 1 µM",23.6%
same,"viability, T/C","second compound 0.316 µM, first compound 3.16 µM",13%
same,"viability, T/C","second compound 0.316 µM, first compound 10 µM",9.25%
same,"viability, T/C",[11],23%
same,"viability, T/C",[12],22.3%
same,"viability, T/C","second compound 1 µM, first compound 0.316 µM",19.3%
same,"viability, T/C","second compound 1 µM, first compound 1 µM",15.4%
same,"viability, T/C","second compound 1 µM, first compound 3.16 µM",14%
same,"viability, T/C","second compound 1 µM, first compound 10 µM",7.62%
Cn1ncnc1[C@H]1c2n[nH]c(=O)c3cc(F)cc(c23)N[C@@H]1c1ccc(F)cc1 + CC(Nc1ccc2c(c1)OCCn1cc(N3C(=O)OCC3C(F)F)nc1-2)C(N)=O,IC50,second compound 0.00316 µM,> 100 nM
same,IC50,second compound 0.01 µM,> 100 nM
same,IC50,second compound 0.0316 µM,> 100 nM
same,IC50,second compound 0.1 µM,> 100 nM
same,IC50,second compound 0.316 µM,< 0.316 nM
same,IC50,second compound 1 µM,< 0.316 nM
same,"viability, T/C","second compound 0.00316 µM, first compound 0.000316 µM",99.8%
same,"viability, T/C","second compound 0.00316 µM, first compound 0.001 µM",104%
same,"viability, T/C","second compound 0.00316 µM, first compound 0.00316 µM",105%
same,"viability, T/C","second compound 0.00316 µM, first compound 0.01 µM",100%
same,"viability, T/C",[1],98.9%
same,"viability, T/C",[2],91.7%
same,"viability, T/C","second compound 0.01 µM, first compound 0.000316 µM",103%
same,"viability, T/C","second compound 0.01 µM, first compound 0.001 µM",106%
same,"viability, T/C","second compound 0.01 µM, first compound 0.00316 µM",88.1%
same,"viability, T/C","second compound 0.01 µM, first compound 0.01 µM",94.2%
same,"viability, T/C",[3],95%
same,"viability, T/C",[4],86.2%
same,"viability, T/C","second compound 0.0316 µM, first compound 0.000316 µM",80%
same,"viability, T/C","second compound 0.0316 µM, first compound 0.001 µM",79%
same,"viability, T/C","second compound 0.0316 µM, first compound 0.00316 µM",77.5%
same,"viability, T/C","second compound 0.0316 µM, first compound 0.01 µM",79.9%
same,"viability, T/C",[5],80.2%
same,"viability, T/C",[6],74.2%
same,"viability, T/C","second compound 0.1 µM, first compound 0.000316 µM",58.8%
same,"viability, T/C","second compound 0.1 µM, first compound 0.001 µM",56%
same,"viability, T/C","second compound 0.1 µM, first compound 0.00316 µM",60.4%
same,"viability, T/C","second compound 0.1 µM, first compound 0.01 µM",57.9%
same,"viability, T/C",[7],54.8%
same,"viability, T/C",[8],50.8%
same,"viability, T/C","second compound 0.316 µM, first compound 0.000316 µM",34.3%
same,"viability, T/C","second compound 0.316 µM, first compound 0.001 µM",35.9%
same,"viability, T/C","second compound 0.316 µM, first compound 0.00316 µM",35.3%
same,"viability, T/C","second compound 0.316 µM, first compound 0.01 µM",33.9%
same,"viability, T/C",[9],34%
same,"viability, T/C",[10],33%
same,"viability, T/C","second compound 1 µM, first compound 0.000316 µM",23.3%
same,"viability, T/C","second compound 1 µM, first compound 0.001 µM",23.3%
same,"viability, T/C","second compound 1 µM, first compound 0.00316 µM",22.2%
same,"viability, T/C","second compound 1 µM, first compound 0.01 µM",23.7%
same,"viability, T/C",[11],23%
same,"viability, T/C",[12],24.4%
